Test results as given in PubChem BioAssay AID248 (DTP/NCI, 2004).
Inconclusive results and toxic doses are left out. Rule as the data show it: active = T/C of 150% or more; inactive = T/C below 125%.

Tested on: L1210 leukemia ip in BDF1 mice, survival T/C
Assay: NCI In Vivo Anticancer Drug Screen. Data for tumor model L1210 Leukemia (intraperitoneal) in B6D2F1 (BDF1) mice
Conditions: endpoint: mean survival time, higher = longer survival
How it was run: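 Tumor cells were implanted, animals were treated, and survival was followed. The result divides the treated measurement by the vehicle-control measurement.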

[1] = dose: 100.0 mg/kg/injection, schedule: Q04DX002 (ip), vehicle: saline with Tween-80
[2] = dose: 200.0 mg/kg/injection, schedule: Q04DX002 (ip), vehicle: saline with Tween-80
[3] = dose: 400.0 mg/kg/injection, schedule: Q04DX002 (ip), vehicle: saline with Tween-80
[4] = dose: 100.0 mg/kg/injection, schedule: Q01DX001 (ip), vehicle: saline

Measured: T/C

c1cc[c]([Ge]([CH2][CH2][Sn]([c]2ccccc2)([c]2ccccc2)[c]2ccccc2)([c]2ccccc2)[c]2ccccc2)cc1
inactive: [1] 102 % of control | [2] 98 % of control | [3] 98 % of control

CC(C)O[Si](C)(C)CCl
inactive: dose: 50.0 mg/kg/injection, schedule: Q01DX001 (ip), vehicle: carboxymethylcellulose (CMC) 98 % of control | dose: 100.0 mg/kg/injection, schedule: Q01DX001 (ip), vehicle: carboxymethylcellulose (CMC) 86 % of control | dose: 200.0 mg/kg/injection, schedule: Q01DX001 (ip), vehicle: carboxymethylcellulose (CMC) 90 % of control | dose: 400.0 mg/kg/injection, schedule: Q01DX001 (ip), vehicle: carboxymethylcellulose (CMC) 92 % of control

CC(=O)Nc1c(NN=C(C)C)[nH]c(=O)[nH]c1=O
inactive: dose: 50.0 mg/kg/injection, schedule: Q01DX001 (ip), vehicle: saline 98 % of control | [4] 96 % of control | dose: 200.0 mg/kg/injection, schedule: Q01DX001 (ip), vehicle: saline 102 % of control | dose: 400.0 mg/kg/injection, schedule: Q01DX001 (ip), vehicle: saline 98 % of control

ClC1(Cl)C2/C=C/CCCCC21 (stereo not given)
inactive: dose: 100.0 mg/kg/injection, schedule: Q01DX005 (ip), vehicle: saline with Tween-80 105 % of control | [1] 92 % of control | dose: 200.0 mg/kg/injection, schedule: Q01DX005 (ip), vehicle: saline with Tween-80 92 % of control | [2] 113 % of control | dose: 400.0 mg/kg/injection, schedule: Q01DX005 (ip), vehicle: saline with Tween-80 92 % of control | [3] 95 % of control

CC(C)OC(=O)Nc1cccnc1
inactive: dose: 100.0 mg/kg/injection, schedule: Q04DX002 (ip), vehicle: Klucel (hydroxypropylcellulose) (HPC) 92 % of control | dose: 200.0 mg/kg/injection, schedule: Q04DX002 (ip), vehicle: Klucel (hydroxypropylcellulose) (HPC) 98 % of control | dose: 400.0 mg/kg/injection, schedule: Q04DX002 (ip), vehicle: Klucel (hydroxypropylcellulose) (HPC) 103 % of control

CCOC(=O)/C=C(\N)c1ccccc1
inactive: [1] 102 % of control | [2] 108 % of control | [3] 91 % of control

CCN(CC)CCN1c2cc(C)ccc2Sc2ccc3ccccc3c21
inactive: dose: 100.0 mg/kg/injection, schedule: Q01DX001 (sc), vehicle: olive oil, sesame oil, peanut oil 101 % of control | dose: 100.0 mg/kg/injection, schedule: Q01DX009 (sc), vehicle: olive oil, sesame oil, peanut oil 101 % of control | dose: 100.0 mg/kg/injection, schedule: Q04DX003 (sc), vehicle: olive oil, sesame oil, peanut oil 110 % of control | dose: 200.0 mg/kg/injection, schedule: Q01DX001 (sc), vehicle: olive oil, sesame oil, peanut oil 100 % of control | dose: 200.0 mg/kg/injection, schedule: Q01DX009 (sc), vehicle: olive oil, sesame oil, peanut oil 118 % of control | dose: 200.0 mg/kg/injection, schedule: Q04DX003 (sc), vehicle: olive oil, sesame oil, peanut oil 110 % of control | dose: 400.0 mg/kg/injection, schedule: Q01DX001 (sc), vehicle: olive oil, sesame oil, peanut oil 101 % of control | dose: 400.0 mg/kg/injection, schedule: Q04DX003 (sc), vehicle: olive oil, sesame oil, peanut oil 113 % of control

COC(=O)/C=C\C[P+](c1ccccc1)(c1ccccc1)c1ccccc1
inactive: dose: 12.5 mg/kg/injection, schedule: Q04DX003 (ip), vehicle: saline 103 % of control | dose: 25.0 mg/kg/injection, schedule: Q04DX003 (ip), vehicle: saline 97 % of control | dose: 50.0 mg/kg/injection, schedule: Q04DX003 (ip), vehicle: saline 100 % of control | [4] 101 % of control

CCOC(=O)COc1ccc(C=O)cc1
inactive: dose: 100.0 mg/kg/injection, schedule: Q01DX009 (ip), vehicle: Klucel (hydroxypropylcellulose) (HPC) 110 % of control | dose: 100.0 mg/kg/injection, schedule: Q04DX003 (ip), vehicle: Klucel (hydroxypropylcellulose) (HPC) 102 % of control | dose: 200.0 mg/kg/injection, schedule: Q01DX009 (ip), vehicle: Klucel (hydroxypropylcellulose) (HPC) 96 % of control | dose: 200.0 mg/kg/injection, schedule: Q04DX003 (ip), vehicle: Klucel (hydroxypropylcellulose) (HPC) 96 % of control | dose: 400.0 mg/kg/injection, schedule: Q01DX009 (ip), vehicle: Klucel (hydroxypropylcellulose) (HPC) 98 % of control | dose: 400.0 mg/kg/injection, schedule: Q04DX003 (ip), vehicle: Klucel (hydroxypropylcellulose) (HPC) 97 % of control

Cc1c(C)c2nc3ccccc3nc2c2ccccc12
inactive: dose: 50.0 mg/kg/injection, schedule: Q01DX001 (ip), vehicle: Klucel (hydroxypropylcellulose) (HPC) 98 % of control | dose: 100.0 mg/kg/injection, schedule: Q01DX001 (ip), vehicle: Klucel (hydroxypropylcellulose) (HPC) 95 % of control | dose: 200.0 mg/kg/injection, schedule: Q01DX001 (ip), vehicle: Klucel (hydroxypropylcellulose) (HPC) 95 % of control

CCN/C(C)=C\C(=O)OCC
inactive: dose: 100.0 mg/kg/injection, schedule: Q01DX009 (ip), vehicle: saline with Tween-80 95 % of control | dose: 100.0 mg/kg/injection, schedule: Q04DX003 (ip), vehicle: saline with Tween-80 96 % of control | dose: 200.0 mg/kg/injection, schedule: Q01DX009 (ip), vehicle: saline with Tween-80 111 % of control | dose: 200.0 mg/kg/injection, schedule: Q04DX003 (ip), vehicle: saline with Tween-80 107 % of control | dose: 400.0 mg/kg/injection, schedule: Q01DX009 (ip), vehicle: saline with Tween-80 95 % of control | dose: 400.0 mg/kg/injection, schedule: Q04DX003 (ip), vehicle: saline with Tween-80 105 % of control
